Key:
[1] = tested on: A2780 intracellular CTD pSer2; assay: CTD pSer2 measurement using human ovarian cancer cell A2780 and In-Cell Western method; format: cell-based; conditions: inhibitory rate against A2780 intracellular CTD pSer2 at 1 μM test compound, 4 hr
Protocol: Experimental Example 3: CTD pSer2 Measurement Using Human Ovarian Cancer Cell A2780 and In-Cell Western Method
A2780 cells (ATCC) were seeded in a 96 well plate at 1.8×10^4 cells/well, and the cells were cultured overnight in a cell culture medium RPMI1640 (FUJIFILM Wako Pure Chemical Corporation) containing 10% FBS (fetal bovine serum) and 1% penicillin/streptomycin. A test compound dissolved in a cell medium was added, and the mixture was stood for 4 hr in a CO2 incubator (37° C.). The cells were fixed with ALTFiX (Falma) for 30 min, and washed 3 times with a washing buffer (20 mM Tris-HCl (pH 7.5), 500 mM NaCl, 0.1% Tween20). 0.1% Triton-X-100 diluted with PBS(−) was added and the mixture was incubated at room temperature for 15 min. Thereafter, a blocking buffer (LI-COR) was added, and the mixture was incubated at room temperature for 1 hr. An anti-CTD pS2 antibody (Abcam) suspended in an antibody diluent (blocking buffer: PBS(−)-diluted 0.1% Tween20=1:1) was added, and the mixture was incubated at room temperature for 1 hr. The mixture was […] with a washing buffer, IRDye800CW-labeled anti-goat antibody (LI-COR) was added, and the mixture was incubated at room temperature for 1 hr. The mixture was washed 3 times with a washing buffer, and the fluorescence wavelength at 800 nm was measured by Aerius (LI-COR).
The inhibitory rate (%) of the test compound against A2780 intracellular CTD pSer2 was calculated by the following formula. Inhibitory rate (%)=(1−(count of test compound−blank)÷(control−blank))×100
The count of the A2780 cell under compound non-addition conditions is indicated as control, and the count under compound non-addition and primary antibody non-addition conditions is indicated as blank.
The results measured by the above-mentioned method (inhibitory rate of the signal value at 1 μM test compound relative to control) are shown below.

CDK12/CycK complex = CDK12/CycK complex (Homo sapiens, UniProt Q9NYV4); assay: Measurement of CDK12 inhibitory activity by binding assay (TR-FRET, 66 nM BODIPY-FL-labeled AT-7519); conditions: inhibitory rate against CDK12 at 1 μM test compound, 66 nM BODIPY-FL-labeled AT-7519, 2 nM CDK12/CycK
CDK12/CycK complex, sequence (Q9NYV4 whole entry, species assumed): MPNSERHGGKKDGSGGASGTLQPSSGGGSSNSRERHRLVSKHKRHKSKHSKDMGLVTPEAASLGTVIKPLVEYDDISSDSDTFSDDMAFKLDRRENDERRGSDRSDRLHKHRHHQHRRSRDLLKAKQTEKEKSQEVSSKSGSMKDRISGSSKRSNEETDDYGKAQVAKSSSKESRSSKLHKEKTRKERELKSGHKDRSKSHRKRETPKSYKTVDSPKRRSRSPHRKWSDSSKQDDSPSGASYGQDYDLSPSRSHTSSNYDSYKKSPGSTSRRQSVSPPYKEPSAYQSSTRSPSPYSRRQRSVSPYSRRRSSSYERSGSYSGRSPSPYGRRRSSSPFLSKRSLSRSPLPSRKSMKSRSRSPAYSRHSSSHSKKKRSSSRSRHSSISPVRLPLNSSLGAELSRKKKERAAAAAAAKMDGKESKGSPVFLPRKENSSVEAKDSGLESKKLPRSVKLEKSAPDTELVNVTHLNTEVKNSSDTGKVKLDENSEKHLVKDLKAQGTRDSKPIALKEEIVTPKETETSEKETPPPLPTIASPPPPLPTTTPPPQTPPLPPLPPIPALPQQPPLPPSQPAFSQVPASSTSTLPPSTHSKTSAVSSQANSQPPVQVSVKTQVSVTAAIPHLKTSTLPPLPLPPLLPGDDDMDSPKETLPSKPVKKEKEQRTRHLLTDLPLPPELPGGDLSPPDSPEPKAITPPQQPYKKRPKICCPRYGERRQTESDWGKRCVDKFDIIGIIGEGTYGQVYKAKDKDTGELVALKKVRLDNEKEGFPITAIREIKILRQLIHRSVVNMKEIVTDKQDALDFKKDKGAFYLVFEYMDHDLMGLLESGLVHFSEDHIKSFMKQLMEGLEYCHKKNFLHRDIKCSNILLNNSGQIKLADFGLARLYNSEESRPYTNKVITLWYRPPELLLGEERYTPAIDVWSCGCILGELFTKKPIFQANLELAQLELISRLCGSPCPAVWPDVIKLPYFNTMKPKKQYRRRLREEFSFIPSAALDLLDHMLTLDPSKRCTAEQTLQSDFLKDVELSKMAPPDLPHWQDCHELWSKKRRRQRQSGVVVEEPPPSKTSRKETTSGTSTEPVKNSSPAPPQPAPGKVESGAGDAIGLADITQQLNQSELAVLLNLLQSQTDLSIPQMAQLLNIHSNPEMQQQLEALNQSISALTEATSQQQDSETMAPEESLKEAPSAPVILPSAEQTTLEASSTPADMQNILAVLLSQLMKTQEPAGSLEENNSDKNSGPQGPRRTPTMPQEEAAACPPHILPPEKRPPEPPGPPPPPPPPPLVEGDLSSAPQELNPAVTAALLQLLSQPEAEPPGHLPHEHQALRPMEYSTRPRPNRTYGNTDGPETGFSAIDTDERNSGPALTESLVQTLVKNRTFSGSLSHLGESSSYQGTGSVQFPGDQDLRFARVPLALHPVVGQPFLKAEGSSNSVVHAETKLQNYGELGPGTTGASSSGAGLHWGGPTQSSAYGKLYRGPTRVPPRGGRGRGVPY
CDK12/CycK complex, sequence (O75909 whole entry partner, species assumed): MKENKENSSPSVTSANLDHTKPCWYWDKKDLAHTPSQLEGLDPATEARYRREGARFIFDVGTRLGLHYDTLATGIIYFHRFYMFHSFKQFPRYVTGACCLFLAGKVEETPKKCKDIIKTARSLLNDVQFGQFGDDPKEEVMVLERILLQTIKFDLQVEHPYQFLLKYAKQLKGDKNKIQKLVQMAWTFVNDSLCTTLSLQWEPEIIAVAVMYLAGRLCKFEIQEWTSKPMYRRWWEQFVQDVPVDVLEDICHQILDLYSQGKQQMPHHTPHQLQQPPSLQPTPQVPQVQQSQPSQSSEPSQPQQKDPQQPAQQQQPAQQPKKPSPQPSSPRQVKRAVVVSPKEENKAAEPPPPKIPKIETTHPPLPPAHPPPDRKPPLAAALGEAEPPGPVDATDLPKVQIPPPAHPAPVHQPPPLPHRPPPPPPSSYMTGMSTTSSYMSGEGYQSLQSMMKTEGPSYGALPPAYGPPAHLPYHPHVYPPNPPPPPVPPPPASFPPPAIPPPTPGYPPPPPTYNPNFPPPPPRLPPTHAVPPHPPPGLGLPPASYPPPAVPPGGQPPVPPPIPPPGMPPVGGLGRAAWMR
Procedure, shortened: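 His-tagged CDK12/CycK (2 nM) premixed with 66 nM BODIPY-FL-AT-7519 tracer, 0.2 nM Tb-streptavidin and 0.4 nM biotin-anti-His, then incubated with compound 120 min at room temperature. Tracer displacement read as BODIPY-FL/Tb TR-FRET ratio; percent inhibition normalized to no-compound control and 3 μM AT-7519 blank.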

A2780 cells = assay: In vitro proliferation suppression test (CellTiter-Glo); format: cell-based, human; conditions: Homo sapiens, 72 h, A2780 cell proliferation inhibitory rate at 1 μM test compound, three days
Procedure, shortened: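 A2780 cells in RPMI1640 with 10% FBS were exposed to 1 μM compound for three days at 37° C, 5% CO2. CellTiter-Glo luminescence read; inhibition (%) calculated relative to wells without compound.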

CDK12/CycK enzyme = CDK12/CycK enzyme (Homo sapiens, UniProt Q9NYV4); assay: Measurement of CDK12/CycK inhibitory activity (ULight-4E-BP1 peptide phosphorylation, LANCE); format: biochemical; conditions: inhibitory rate against CDK12/CycK at 1 μM test compound, ATP 10 μM or 500 μM
CDK12/CycK enzyme, sequence (Q9NYV4 whole entry, species assumed): as the sequence (Q9NYV4 whole entry, species assumed) above
CDK12/CycK enzyme, sequence (O75909 whole entry partner, species assumed): as the sequence (O75909 whole entry partner, species assumed) above
Protocol: Experimental Example 2: Measurement of CDK12/CycK Inhibitory Activity
A test compound dissolved in DMSO was added to a reaction solution (50 mM HEPES (pH 7.5), 10 mM MgCl2, 1 mM DTT, 0.01% Tween 20, 0.01% BSA) containing CDK12/CycK enzyme and ULight-labeled eIF4E-binding protein 1 (4E-BP1) (Thr37/Thr46) peptide (PerkinElmer), and the mixture was reacted at room temperature for 60 min. […] was added to give an ATP solution with a final concentration of 10 μM or 500 μM to start the enzyme reaction, and the mixture was reacted at room temperature for 60 min. A LANCE Detection buffer (PerkinElmer) containing europium-labeled anti-phosphorylation 4E-BP1 (Thr37/Thr46) antibody (PerkinElmer) and EDTA (final concentration 10 mM) was added to discontinue the reaction. After standing for 60 min, time decomposition fluorescence value (excitation 320 nm, emission 615 nm, 665 nm) was measured by Envision (PerkinElmer). The inhibitory rate (%) of the test compound against CDK12/CyclinK was calculated by the following formula. Inhibitory rate (%)=(1−(count of test compound−blank)÷(control−blank))×100
The count of the CDK12 enzyme reaction mixture under compound non-addition conditions is indicated as control, and the count under compound non-addition and CDK12/CycK enzyme non-addition conditions is indicated as blank.
The results measured by the above-mentioned method (inhibitory rate (%) of the signal value at 1 μM test compound relative to control is shown below.

Cn1cc(-c2cnc(N(C(=O)NCc3ccccc3)[C@H]3CC[C@H](Nc4ncc(C#N)c(NC5COC5)n4)CC3)nc2)cn1 [Example 575, 3-benzyl-1-(trans-4-((5-cyano-4-(oxetan-3-ylamino)pyrimidin-2-yl)amino)cyclohexyl)-1-(5-(1-methyl-1H-pyrazol-4-yl)pyrimidin-2-yl)urea]
inhibition at 1 µM [1]: 63% | inhibition at 1 µM (CDK12/CycK complex): 101% | inhibition at 1 µM (A2780 cells): 99% | inhibition at 1 µM (CDK12/CycK enzyme): 97%

COc1ncc(-c2ccc(N(C(=O)NCc3ccccc3)[C@H]3CC[C@H](Nc4ncc(C#N)c(-c5cn[nH]c5C)n4)CC3)nc2)cn1 [Example 577, 3-benzyl-1-(trans-4-((5-cyano-4-(5-methyl-1H-pyrazol-4-yl)pyrimidin-2-yl)amino)cyclohexyl)-1-(5-(2-methoxypyrimidin-5-yl)pyridin-2-yl)urea]
inhibition at 1 µM [1]: 87% | inhibition at 1 µM (CDK12/CycK complex): 88% | inhibition at 1 µM (A2780 cells): 94% | inhibition at 1 µM (CDK12/CycK enzyme): 98%

COc1ncc(-c2ccc(N(C(=O)OCc3ccccc3)[C@H]3CC[C@H](Nc4ncc(C#N)c(NC5COC5)n4)CC3)nc2)cn1 [Example 581, benzyl (trans-4-((5-cyano-4-(oxetan-3-ylamino)pyrimidin-2-yl)amino)cyclohexyl) (5-(2-methoxypyrimidin-5-yl)pyridin-2-yl)carbamate]
inhibition at 1 µM [1]: 70% | inhibition at 1 µM (CDK12/CycK complex): 88% | inhibition at 1 µM (A2780 cells): 99% | inhibition at 1 µM (CDK12/CycK enzyme): 102%

COc1ncc(-c2ccc(N(C(=O)NCc3ccccc3F)[C@H]3CC[C@H](Nc4ncc(C#N)c(NC5COC5)n4)CC3)nc2)cn1 [Example 582, 1-(trans-4-((5-cyano-4-(oxetan-3-ylamino)pyrimidin-2-yl)amino)cyclohexyl)-3-(2-fluorobenzyl)-1-(5-(2-methoxypyrimidin-5-yl)pyridin-2-yl)urea]
inhibition at 1 µM [1]: 72% | inhibition at 1 µM (CDK12/CycK complex): 91% | inhibition at 1 µM (A2780 cells): 97% | inhibition at 1 µM (CDK12/CycK enzyme): 110%

COc1ncc(-c2ccc(N(C(=O)NCc3ccccc3)[C@H]3CC[C@H](Nc4ncc(C(F)(F)F)c(OC5COC5)n4)CC3)nc2)cn1 [Example 588, 3-benzyl-1-(5-(2-methoxypyrimidin-5-yl)pyridin-2-yl)-1-(trans-4-((4-(oxetan-3-yloxy)-5-(trifluoromethyl)pyrimidin-2-yl)amino)cyclohexyl)urea]
inhibition at 1 µM [1]: 75% | inhibition at 1 µM (CDK12/CycK complex): 99% | inhibition at 1 µM (A2780 cells): 98% | inhibition at 1 µM (CDK12/CycK enzyme): 100%

COc1ncc(-c2ccc(N(C(=O)NCc3ccccc3)[C@H]3CC[C@H](Nc4ncc(C(F)(F)F)c(NC5COC5)n4)CC3)nc2)cn1 [Example 589, 3-benzyl-1-(5-(2-methoxypyrimidin-5-yl)pyridin-2-yl)-1-(trans-4-((4-(oxetan-3-ylamino)-5-(trifluoromethyl)pyrimidin-2-yl)amino)cyclohexyl) urea]
inhibition at 1 µM [1]: 78% | inhibition at 1 µM (CDK12/CycK complex): 100% | inhibition at 1 µM (A2780 cells): 97% | inhibition at 1 µM (CDK12/CycK enzyme): 115%

COc1ncc(-c2cnc(N(C(=O)NCc3ccccc3)[C@H]3CC[C@H](Nc4ncc(C#N)c(N5CCCC(O)CC5)n4)CC3)nc2)cn1 (stereo partly drawn) [Example 596, 3-benzyl-1-(trans-4-((5-cyano-4-(4-hydroxyazepan-1-yl)pyrimidin-2-yl)amino)cyclohexyl)-1-(2′-methoxy-5,5′-bipyrimidin-2-yl)urea]
inhibition at 1 µM [1]: 71% | inhibition at 1 µM (CDK12/CycK complex): 103% | inhibition at 1 µM (A2780 cells): 99% | inhibition at 1 µM (CDK12/CycK enzyme): 100%

COc1ncc(-c2ccc(N(C(=O)OCc3ccccc3)[C@H]3CC[C@H](Nc4ncc(C(F)(F)F)c(N5CC(F)(CO)C5)n4)CC3)nc2)cn1 [Example 600, benzyl (trans-4-((4-(3-fluoro-3-(hydroxymethyl)azetidin-1-yl)-5-(trifluoromethyl)pyrimidin-2-yl)amino)cyclohexyl) (5-(2-methoxypyrimidin-5-yl)pyridin-2-yl)carbamate]
inhibition at 1 µM [1]: 81% | inhibition at 1 µM (CDK12/CycK complex): 83% | inhibition at 1 µM (A2780 cells): 93% | inhibition at 1 µM (CDK12/CycK enzyme): 108%

COc1ncc(-c2ccc(N(C(=O)OCc3ccccc3)[C@H]3CC[C@H](Nc4ncc(C#N)c(N5CC(F)(CO)C5)n4)CC3)nc2)cn1 [Example 603, benzyl (trans-4-((5-cyano-4-(3-fluoro-3-(hydroxymethyl)-azetidin-1-yl)pyrimidin-2-yl)amino)cyclohexyl) (5-(2-methoxypyrimidin-5-yl)pyridin-2-yl)carbamate]
inhibition at 1 µM [1]: 81% | inhibition at 1 µM (CDK12/CycK complex): 76% | inhibition at 1 µM (A2780 cells): 93% | inhibition at 1 µM (CDK12/CycK enzyme): 103%

Cn1cc(-c2ccc(N(C(=O)NCc3ccccc3)[C@H]3CC[C@H](Nc4ncc(C#N)c(NC5(C)COC5)n4)CC3)nc2)cn1 [Example 605, 3-benzyl-1-(trans-4-((5-cyano-4-((3-methyloxetan-3-yl)amino)-pyrimidin-2-yl)amino)cyclohexyl)-1-(5-(1-methyl-1H-pyrazol-4-yl)pyridin-2-yl)urea]
inhibition at 1 µM [1]: 73% | inhibition at 1 µM (CDK12/CycK complex): 90% | inhibition at 1 µM (A2780 cells): 98% | inhibition at 1 µM (CDK12/CycK enzyme): 100%

COc1ncc(-c2cnc(N(C(=O)OCc3ccccc3)[C@H]3CC[C@H](Nc4ncc(C#N)c(NC5COC5)n4)CC3)nc2)cn1 [Example 608, benzyl (trans-4-((5-cyano-4-(oxetan-3-ylamino)pyrimidin-2-yl)amino)cyclohexyl) (2′-methoxy-5,5′-bipyrimidin-2-yl)carbamate]
inhibition at 1 µM [1]: 44% | inhibition at 1 µM (CDK12/CycK complex): 98% | inhibition at 1 µM (A2780 cells): 99% | inhibition at 1 µM (CDK12/CycK enzyme): 102%

COc1ncc(-c2ccc(N(C(=O)NCc3ccccc3)[C@H]3CC[C@H](Nc4ncc(C#N)c(OC5COC5)n4)CC3)nc2)cn1 [Example 609, 3-benzyl-1-(trans-4-((5-cyano-4-(oxetan-3-yloxy)pyrimidin-2-yl)amino)cyclohexyl)-1-(5-(2-methoxypyrimidin-5-yl)pyridin-2-yl)urea]
inhibition at 1 µM [1]: 41% | inhibition at 1 µM (CDK12/CycK complex): 99% | inhibition at 1 µM (A2780 cells): 99% | inhibition at 1 µM (CDK12/CycK enzyme): 107%

COc1ncc(-c2ccc(N(C(=O)NCc3ccccn3)[C@H]3CC[C@H](Nc4ncc(C(F)(F)F)c(OC5COC5)n4)CC3)nc2)cn1 [Example 610, 1-(5-(2-methoxypyrimidin-5-yl)pyridin-2-yl)-1-(trans-4-((4-(oxetan-3-yloxy)-5-(trifluoromethyl)pyrimidin-2-yl)amino)cyclohexyl)-3-(pyridin-2-ylmethyl)urea]
inhibition at 1 µM [1]: 49% | inhibition at 1 µM (CDK12/CycK complex): 103% | inhibition at 1 µM (A2780 cells): 98% | inhibition at 1 µM (CDK12/CycK enzyme): 99%

COc1ncc(-c2cnc(N(C(=O)OCc3ccccc3)[C@H]3CC[C@H](Nc4ncc(C#N)c(N5CCCC(O)CC5)n4)CC3)nc2)cn1 (stereo partly drawn) [Example 611, benzyl (trans-4-((5-cyano-4-(4-hydroxyazepan-1-yl)pyrimidin-2-yl)amino)cyclohexyl) (2′-methoxy-5,5′-bipyrimidin-2-yl)carbamate]
inhibition at 1 µM [1]: 48% | inhibition at 1 µM (CDK12/CycK complex): 101% | inhibition at 1 µM (A2780 cells): 97% | inhibition at 1 µM (CDK12/CycK enzyme): 101%
